Patent publication US4820694A, “Modifications of 3-O-demethylmycinose in macrocin and lactenocin” (priority 1986, dated 1989)
Values after ≈ are worked out from the molar mass of the structure shown. Read-outs that look alike come from different tables or passages of the source.

Experiments:
[1] = tested on: Klebsiella pneumoniae X68; assay: standard agar-dilution MIC assay; type: cell-based; settings: Klebsiella pneumoniae, X68
Experimental: (§1) The MIC's in Table III were determined by standard agar-dilution assays. The MIC's in Table IV were obtained using conventional brothdilution microtiter tests.

[2] = tested on: Pseudomonas aeruginosa X239; assay: standard agar-dilution MIC assay; type: cell-based; settings: Pseudomonas aeruginosa, X239
Experimental: as §1

[3] = tested on: Haemophilus influenzae 76; assay: standard agar-dilution MIC assay; type: cell-based; settings: Haemophilus influenzae, 76
Experimental: as §1

[4] = tested on: Haemophilus influenzae C.L.; assay: standard agar-dilution MIC assay; type: cell-based; settings: Haemophilus influenzae
Experimental: as §1

[5] = tested on: Staphylococcus aureus V41; assay: standard agar-dilution MIC assay; type: cell-based; settings: Staphylococcus aureus, V41
Experimental: as §1

Escherichia coli EC14 = assay: standard agar-dilution MIC assay; type: cell-based
Experimental: as §1

[6] = tested on: Staphylococcus epidermidis 222; assay: standard agar-dilution MIC assay; type: cell-based; settings: Staphylococcus epidermidis, 222
Experimental: as §1

[7] = tested on: Streptococcus Group D 9960; assay: standard agar-dilution MIC assay; type: cell-based; settings: GROUPD9960, read-out: MIC
Experimental: as §1

[8] = tested on: Staphylococcus aureus X400; assay: standard agar-dilution MIC assay; type: cell-based; settings: Staphylococcus aureus, X400
Experimental: as §1

[9] = tested on: Streptococcus pyogenes C203; assay: standard agar-dilution MIC assay; type: cell-based; settings: Streptococcus pyogenes, C203
Experimental: as §1

[10] = tested on: Staphylococcus epidermidis EPI1; assay: standard agar-dilution MIC assay; type: cell-based; settings: Staphylococcus epidermidis, EPI1
Experimental: as §1

[11] = tested on: Staphylococcus aureus X1.1; assay: standard agar-dilution MIC assay; type: cell-based; settings: Staphylococcus aureus, X1.1
Experimental: as §1

[12] = tested on: Streptococcus Group D X66; assay: standard agar-dilution MIC assay; type: cell-based; settings: read-out: MIC
Experimental: as §1

[13] = tested on: Streptococcus pyogenes C203; assay: protection of mice experimentally infected with S. pyogenes C203; type: in vivo
Experimental: The formula 1 compounds have shown in vivo antimicrobial activity against experimentally-induced infections in laboratory animals. When two doses of test compound were administered to mice experimentally infected with S. pyrogenes C203, the activity observed was measured as an ED50 value [effective dose in mg/kg to protect 50% of the test animals: see Warren Wick, et al., J. Bacteriol. 81, 233-235 (1961)].
^a mg/kg × 2; doses given 1 and 4 hours postinfection

[14] = tested on: Pasteurella multocida 40G; assay: broth-dilution microtiter MIC test; type: cell-based; settings: Pasteurella multocida, 40G
Experimental: as §1

[15] = tested on: Pasteurella multocida 68C; assay: broth-dilution microtiter MIC test; type: cell-based; settings: Pasteurella multocida, 68C
Experimental: as §1

[16] = tested on: Pasteurella hemolytica 22C; assay: broth-dilution microtiter MIC test; type: cell-based; settings: Pasteurella, 22C
Experimental: as §1

Mycoplasma hyorhinis 29E = assay: broth-dilution microtiter MIC test; type: cell-based; settings: Mycoplasma, 29E
Experimental: as §1

[17] = tested on: Bordetella bronchiseptica; assay: broth-dilution microtiter MIC test; type: cell-based; settings: Bordetella bronchiseptica
Experimental: as §1

[18] = tested on: Pasteurella multocida 22A; assay: broth-dilution microtiter MIC test; type: cell-based; settings: Pasteurella multocida, 22A
Experimental: as §1

[19] = tested on: Mycoplasma gallisepticum 15E; assay: broth-dilution microtiter MIC test; type: cell-based; settings: Mycoplasmoides gallisepticum, 15E
Experimental: as §1

[20] = tested on: Pasteurella multocida 60A; assay: broth-dilution microtiter MIC test; type: cell-based; settings: Pasteurella multocida, 60A
Experimental: as §1

[21] = tested on: Pasteurella hemolytica 41D; assay: broth-dilution microtiter MIC test; type: cell-based; settings: Pasteurella, 41D
Experimental: as §1

[22] = tested on: Staphylococcus aureus 19C; assay: broth-dilution microtiter MIC test; type: cell-based; settings: Staphylococcus aureus, 19C
Experimental: as §1

[23] = tested on: Mycoplasma gallisepticum 36H; assay: broth-dilution microtiter MIC test; type: cell-based; settings: Mycoplasmoides gallisepticum, 36H
Experimental: as §1

Streptococcus sp. 19F = assay: broth-dilution microtiter MIC test; type: cell-based; settings: Streptococcus, SP.19F
Experimental: as §1

[24] = tested on: Pasteurella multocida 17E; assay: broth-dilution microtiter MIC test; type: cell-based; settings: Pasteurella multocida, 17E
Experimental: as §1

Mycoplasma synoviae 40A = assay: broth-dilution microtiter MIC test; type: cell-based; settings: Mycoplasmopsis synoviae, 40A
Experimental: as §1

[25] = tested on: Pasteurella hemolytica 23C; assay: broth-dilution microtiter MIC test; type: cell-based; settings: Pasteurella, 23C
Experimental: as §1

[26] = tested on: Mycoplasma gallisepticum 29C; assay: broth-dilution microtiter MIC test; type: cell-based; settings: Mycoplasmoides gallisepticum, 29C
Experimental: as §1

[27] = tested on: Streptococcus pneumoniae Park I; assay: microbe, parasite or virus in culture; type: cell-based; settings: Streptococcus pneumoniae
Experimental: as §1

[28] = tested on: Staphylococcus aureus S13E; assay: microbe, parasite or virus in culture; type: cell-based; settings: Staphylococcus aureus, S13E
Experimental: as §1

Row | Compound | MIC [3] [µg/mL] | MIC [4] [µg/mL] | MIC [5] [µg/mL] | MIC [6] [µg/mL] | MIC [7] [µg/mL] | MIC [8] [µg/mL] | MIC [9] [µg/mL] | MIC [10] [µg/mL] | MIC [11] [µg/mL] | MIC [12] [µg/mL] | MIC [14] [µg/mL] | MIC [15] [µg/mL] | MIC [16] [µg/mL] | MIC (Mycoplasma hyorhinis 29E) [µg/mL] | MIC [18] [µg/mL] | MIC [19] [µg/mL] | MIC [20] [µg/mL] | MIC [21] [µg/mL] | MIC [22] [µg/mL] | MIC [23] [µg/mL] | also measured
1 | CCC1OC(=O)CC(O)C(C)C(OC2OC(C)C(O)C(N(C)C)C2O)C(CC=O)CC(C)C(=O)C=CC(C)=CC1COC1OC(C)C(OC(=O)COc2ccccc2)C(OC(=O)COc2ccccc2)C1OC (stereo not drawn) [Compound 36, 3",4"-Di-O-phenoxyacetyl-lactenocin] | 32 (≈ 31.2 µM) | 32 (≈ 31.2 µM) | 2 (≈ 1.95 µM) | 0.5 (≈ 0.487 µM) | 2 (≈ 1.95 µM) | 2 (≈ 1.95 µM) | 0.5 (≈ 0.487 µM) | 2 (≈ 1.95 µM) | 2 (≈ 1.95 µM) | 2 (≈ 1.95 µM) | 50 (≈ 48.7 µM) | 25 (≈ 24.4 µM) | 50 (≈ 48.7 µM) | 6.25 (≈ 6.09 µM) | 50 (≈ 48.7 µM) | 12.5 (≈ 12.2 µM) | 50 (≈ 48.7 µM) | 25 (≈ 24.4 µM) | 1.56 (≈ 1.52 µM) | 12.5 (≈ 12.2 µM) | MIC ([1]; agar-dilution, read-out: MIC): > 128 µg/mL; MIC ([2]; agar-dilution, read-out: MIC): > 128 µg/mL; MIC (Escherichia coli EC14; agar-dilution, read-out: MIC): > 128 µg/mL; ED50 ([13]; C203, Oral, mice, mg/kg × 2, doses given 1 and 4 hours postinfection, read-out: ED50): > 100 mg/kg; ED50 ([13]; C203, sc, Subcutaneous, mice, mg/kg × 2, doses given 1 and 4 hours postinfection, read-out: ED50): 4.3 mg/kg; MIC ([17]; broth-dilution microtiter, read-out: MIC): > 50 µg/mL; MIC (Streptococcus sp. 19F): 0.78 µg/mL (≈ 0.76 µM); MIC [24]: 50 µg/mL (≈ 48.7 µM); MIC (Mycoplasma synoviae 40A): 1.56 µg/mL (≈ 1.52 µM); MIC [25]: 25 µg/mL (≈ 24.4 µM); MIC [26]: 0.39 µg/mL (≈ 0.38 µM); MIC [27]: 1 µg/mL (≈ 0.974 µM); MIC [28]: 2 µg/mL (≈ 1.95 µM)
2 | CCC1OC(=O)CC(O)C(C)C(OC2OC(C)C(O)C(N(C)C)C2O)C(CC=O)CC(C)C(=O)C=CC(C)=CC1COC1OC(C)C(OC(=O)Cc2ccccc2)C(O)C1OC (stereo not drawn) [Compound 30, 4"-O-Phenylacetyl-lactenocin] | 8 (≈ 9.13 µM) | 8 (≈ 9.13 µM) | 0.5 (≈ 0.571 µM) | 0.25 (≈ 0.285 µM) | 1 (≈ 1.14 µM) | 1 (≈ 1.14 µM) | 0.25 (≈ 0.285 µM) | 0.5 (≈ 0.571 µM) | 0.5 (≈ 0.571 µM) | 0.5 (≈ 0.571 µM) | 25 (≈ 28.5 µM) | 12.5 (≈ 14.3 µM) | 50 (≈ 57.1 µM) | 1.56 (≈ 1.78 µM) | 25 (≈ 28.5 µM) | 12.5 (≈ 14.3 µM) | 25 (≈ 28.5 µM) | 50 (≈ 57.1 µM) | 6.25 (≈ 7.13 µM) | 25 (≈ 28.5 µM) | MIC [1]: > 128 µg/mL; MIC [2]: > 128 µg/mL; MIC (Escherichia coli EC14): > 128 µg/mL; MIC [17]: > 50 µg/mL; MIC (Streptococcus sp. 19F): 1.56 µg/mL (≈ 1.78 µM); MIC [24]: 25 µg/mL (≈ 28.5 µM); MIC (Mycoplasma synoviae 40A): 1.56 µg/mL (≈ 1.78 µM); MIC [25]: 25 µg/mL (≈ 28.5 µM); MIC [26]: 0.39 µg/mL (≈ 0.445 µM); MIC [27]: 0.5 µg/mL (≈ 0.571 µM); MIC [28]: 0.5 µg/mL (≈ 0.571 µM)
3 | CCC1OC(=O)CC(O)C(C)C(OC2OC(C)C(O)C(N(C)C)C2O)C(CC=O)CC(C)C(=O)C=CC(C)=CC1COC1OC(C)C(O)C(OC(=O)Cc2ccccc2)C1OC (stereo not drawn) [Compound 32, 3"-O-Phenylacetyl-lactenocin] | 8 (≈ 9.13 µM) | 8 (≈ 9.13 µM) | 1 (≈ 1.14 µM) | 0.25 (≈ 0.285 µM) | 1 (≈ 1.14 µM) | 2 (≈ 2.28 µM) | 0.25 (≈ 0.285 µM) | 0.5 (≈ 0.571 µM) | 0.5 (≈ 0.571 µM) | 1 (≈ 1.14 µM) | 25 (≈ 28.5 µM) | 12.5 (≈ 14.3 µM) | 25 (≈ 28.5 µM) | 1.56 (≈ 1.78 µM) | 25 (≈ 28.5 µM) | 12.5 (≈ 14.3 µM) | 25 (≈ 28.5 µM) | 25 (≈ 28.5 µM) | 1.56 (≈ 1.78 µM) | 25 (≈ 28.5 µM) | MIC [1]: > 128 µg/mL; MIC [2]: > 128 µg/mL; MIC (Escherichia coli EC14): > 128 µg/mL; ED50 ([13]; C203, sc): 4.4 mg/kg; MIC [17]: > 50 µg/mL; MIC (Streptococcus sp. 19F): 1.56 µg/mL (≈ 1.78 µM); MIC [24]: 25 µg/mL (≈ 28.5 µM); MIC (Mycoplasma synoviae 40A): 1.56 µg/mL (≈ 1.78 µM); MIC [25]: 25 µg/mL (≈ 28.5 µM); MIC [26]: 0.195 µg/mL (≈ 0.223 µM); MIC [27]: 0.5 µg/mL (≈ 0.571 µM); MIC [28]: 1 µg/mL (≈ 1.14 µM)
